From US20240360154A1, “AROYL SUBSTITUTED TRICYCLIC COMPOUND, PREPARATION METHOD THEREFOR AND USE THEREOF” (GENFLEET THERAPEUTICS (SHANGHAI) INC., priority 2020, published 2024)

Assays:
BTK (C481S) = BTK (C481S) (Homo sapiens (Human), UniProt Q06187, C481S); assay: BTK C481S enzyme experiment (ADP-Glo kinase assay); format: biochemical; conditions: 10 nM BTK C481S, ATP 125 μM, Poly(Glu4, Tyr1), 90 minutes at 20° C.
How it was run: (§1)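 Wild-type or C481S BTK, added as 2× solution at 10 nM, preincubated 10 min with 3-fold compound dilutions in 50 mM HEPES pH 7.5, 10 mM MgCl2, 2 mM DTT, 0.0015% Brij-35. ADP-Glo luminescence norm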

BTK = BTK (Homo sapiens (Human), UniProt Q06187); assay: BTK enzyme experiment (ADP-Glo kinase assay); format: biochemical; conditions: 10 nM BTK, ATP 125 μM, Poly(Glu4, Tyr1), 90 minutes at 20° C.; read-out: BTK(WT) IC50
BTK, sequence (Q06187 whole entry): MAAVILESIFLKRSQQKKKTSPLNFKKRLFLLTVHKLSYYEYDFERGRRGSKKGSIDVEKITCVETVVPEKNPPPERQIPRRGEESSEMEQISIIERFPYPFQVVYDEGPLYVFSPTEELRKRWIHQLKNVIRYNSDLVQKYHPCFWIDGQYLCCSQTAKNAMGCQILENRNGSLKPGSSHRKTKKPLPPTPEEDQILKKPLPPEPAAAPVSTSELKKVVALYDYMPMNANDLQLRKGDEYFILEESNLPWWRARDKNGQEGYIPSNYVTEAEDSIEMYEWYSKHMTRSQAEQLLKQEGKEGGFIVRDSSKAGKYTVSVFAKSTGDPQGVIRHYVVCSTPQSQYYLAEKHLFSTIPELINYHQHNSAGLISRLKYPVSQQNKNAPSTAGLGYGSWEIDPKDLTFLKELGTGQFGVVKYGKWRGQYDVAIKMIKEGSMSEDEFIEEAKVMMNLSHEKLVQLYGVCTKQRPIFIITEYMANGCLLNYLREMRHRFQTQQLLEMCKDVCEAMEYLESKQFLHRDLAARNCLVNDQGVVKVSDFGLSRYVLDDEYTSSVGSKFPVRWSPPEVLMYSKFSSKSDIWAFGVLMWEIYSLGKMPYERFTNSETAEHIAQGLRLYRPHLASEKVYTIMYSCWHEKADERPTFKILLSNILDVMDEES
How it was run: as §1

TMD-8 cells = assay: TMD-8 proliferation inhibition experiment; format: cell-based; conditions: human diffuse large B lymphoma cells, three days incubation
Method: TMD-8 cells are human diffuse large B lymphoma (Mingzhou Bio, MZ-0832), cultured in 10% FBS+1% PS 1640 medium; OCI-LY10 is human diffuse large B lymphoma (BeNa Culture Collection, BNCC337742), cultured in 10% FBS+1% PS IMDM. Day 1: Cells at logarithmic growth phase were taken, counted and inoculated 600 TMD-8 or 2000 OCI-LY10 cells in a 384-well cell culture plate and cultured overnight. Day 2: A 3-fold gradient concentration stock solution of 400× compound was prepared with DMSO, and diluted 40-fold to a 10× compound stock solution with culture medium. The 10× compound stock solution was added to each cell culture well with a final concentration of 1× compound stock solution and a DMSO content of 0.25%. DMSO was used as experimental control, and culture medium was used as blank control. The incubation was continued for three days after compound addition. On the fifth day, 25 μL of […] was added to each well, mixed well and incubated for 10 minutes, then the chemiluminescence value (RLU value) was read. The cell proliferation inhibition rate (%)=(RLUcontrol−RLUcompound)/(RLUcontrol−RLUblank)×100% was calculated. The compound gradient dilution concentration and the corresponding cell proliferation inhibition rate were fit by using XLFit four-parameter method, and IC50 value was calculated.

BTK (C481S), sequence (Q06187 whole entry C481S): as the sequence (Q06187 whole entry) above, with C481S counted along it

Row | Compound | IC50 (BTK (C481S)) [nM] | IC50 (BTK) [nM] | IC50 (TMD-8 cells; Homo sapiens, TMD8, 72 h) [nM] | IC50 (TMD-8 cells) [nM]
1 | COC[C@]1(C)Nc2c(cnc3[nH]cc(C(=O)c4ccc(Oc5c(OC)ccc(F)c5F)cc4Cl)c23)NC1=O [Z177, (S)-9-(2-chloro-4-(2,3-difluoro-6-methoxyphenoxy)benzoyl)-2-(methoxymethyl)-2-methyl-1,2,4,7-tetrahydro-3H-pyrrolo[3′,2′:5,6]pyrido[3,4-b]pyrazin-3-one] | 11.1 | 6.4 | 34.6 | 
2 | COC[C@]1(C)Nc2c(cnc3[nH]cc(C(=O)c4ccc(Oc5ccccc5OC)cc4Cl)c23)NC1=O [Z163, (S)-9-(2-chloro-4-(2-methoxyphenoxy)benzoyl)-2-(methoxymethyl)-2-methyl-1,2,4,7-tetrahydro-3H-pyrrolo[3′,2′:5,6]pyrido[3,4-b]pyrazin-3-one] | 16.5 | 10.6 | 75.7 | 
3 | CN1C(=O)[C@@](C)(CO)Nc2c1cnc1[nH]cc(C(=O)c3ccc(Oc4ccccc4)cc3Cl)c21 (single isomer, unassigned) [Z51-2] | 20.8 | 32.6 |  | 154
4 | COC[C@]1(C)Nc2c(cnc3[nH]cc(C(=O)c4ccc(Oc5cccc(C#N)c5)cc4Cl)c23)NC1=O [Z131, (S)-3-(3-chloro-4-(2-(methoxymethyl)-2-methyl-3-oxo-2,3,4,7-tetrahydro-1H-pyrrolo[3′,2′:5,6]pyrido[3,4-b]pyrazine-9-carbonyl)phenoxy)benzonitrile] | 37.8 | 26.9 | 307 | 
5 | O=C(c1ccc(Oc2ccccc2)cc1Cl)c1c[nH]c2ncc3c(c12)N[C@@]1(CC[C@H](O)C1)C(=O)N3 (single isomer, unassigned) [Z24-1] | 3.7 | 3.5 |  | 55.4
6 | CN1CCC2(C1)Nc1c(cnc3[nH]cc(C(=O)c4ccc(Oc5cccc(F)c5)cc4Cl)c13)NC2=O (stereo not drawn) [Z7] | 17.8 | 28.3 |  | 258
7 | CN1CCC2(C1)Nc1c(cnc3[nH]cc(C(=O)c4ccc(Oc5ccccc5F)cc4Cl)c13)NC2=O (stereo not drawn) [Z6] | 14.1 | 19.3 |  | 151
8 | CN1C(=O)C(C)(CO)Nc2c1cnc1[nH]cc(C(=O)c3ccc(Oc4ccccc4)cc3Cl)c21 (stereo not drawn) [Z51, 9-(2-chloro-4-phenoxybenzoyl)-2-(hydroxymethyl)-2,4-dimethyl-1,2,4,7-tetrahydro-3H-pyrrolo[3′,2′:5,6]pyrido[3,4-b]pyrazin-3-one] | 39.6 | 36.5 | 259 | 
9 | COC[C@]1(C)Nc2c(cnc3[nH]cc(C(=O)c4ccc(Oc5ccccc5F)cc4F)c23)NC1=O [Z156, (S)-9-(2-fluoro-4-(2-fluorophenoxy)benzoyl)-2-(methoxymethyl)-2-methyl-1,2,4,7-tetrahydro-3H-pyrrolo[3′,2′:5,6]pyrido[3,4-b]pyrazin-3-one] | 10.5 | 20 | 117 | 
10 | COC[C@]1(C)Nc2c(cnc3[nH]cc(C(=O)c4ccc(Oc5ncccc5Cl)cc4Cl)c23)NC1=O [Z147, (S)-9-(2-chloro-4-((3-chloropyridin-2-yl)oxy)benzoyl)-2-(methoxymethyl)-2-methyl-1,2,4,7-tetrahydro-3H-pyrrolo[3′,2′:5,6]pyrido[3,4-b]pyrazin-3-one] | 19.8 | 11.1 | 279 | 
11 | COCC1(C)Nc2c(cnc3[nH]cc(C(=O)c4ccc(Oc5ccccc5)cc4Cl)c23)N(C)C1=O (single isomer, unassigned) [Z52-1, 9-(2-chloro-4-phenoxybenzoyl)-2-(methoxymethyl)-2,4-dimethyl-1,2,4,7-tetrahydro-3H-pyrrolo[3′,2′:5,6]pyrido[3,4-b]pyrazin-3-one] | 24.2 | 23.8 | 201 | 
12 | COC[C@]1(C)Nc2c(cnc3[nH]cc(C(=O)c4ccc(Oc5ncccc5F)cc4Cl)c23)NC1=O [Z144, (S)-9-(2-chloro-4-((3-fluoropyridin-2-yl)oxy)benzoyl)-2-(methoxymethyl)-2-methyl-1,2,4,7-tetrahydro-3H-pyrrolo[3′,2′:5,6]pyrido[3,4-b]pyrazin-3-one] | 16.8 | 11.7 | 227 | 
13 | COC[C@]1(C)Nc2c(cnc3[nH]cc(C(=O)c4ccc(Oc5ncccc5C)cc4Cl)c23)NC1=O [Z140, (S)-9-(2-chloro-4-((3-methylpyridin-2-yl)oxy)benzoyl)-2-(methoxymethyl)-2-methyl-1,2,4,7-tetrahydro-3H-pyrrolo[3′,2′:5,6]pyrido[3,4-b]pyrazin-3-one] | 18.2 | 26.5 | 158 | 
14 | CN1C(=O)[C@](C)(CO)Nc2c1cnc1[nH]cc(C(=O)c3ccc(Oc4ccccc4)cc3Cl)c21 (single isomer, unassigned) [Z51-1] | 34.3 | 52.3 |  | 280
15 | COC1CCC2(C1)Nc1c(cnc3[nH]cc(C(=O)c4ccc(Oc5ccccc5)cc4Cl)c13)NC2=O (single isomer, unassigned) [Z25-3, 9′-(2-chloro-4-phenoxybenzoyl)-3-methoxy-4′,7′-dihydrospiro[cyclopentane-1,2′-pyrrolo[3′,2′:5,6]pyrido[3,4-b]pyrazin]-3′(1′H)-one] | 16.4 | 22.4 |  | 108
16 | N#C[C@H]1CC[C@@]2(C1)Nc1c(cnc3[nH]cc(C(=O)c4ccc(Oc5ccccc5)cc4Cl)c13)NC2=O (single isomer, unassigned) [Z26-2] | 17.5 | 23.6 |  | 159
17 | O=C(c1ccc(Oc2ccccc2)cc1Cl)c1c[nH]c2ncc3c(c12)NC1(CCN(C(=O)C2CC2)C1)C(=O)N3 (stereo not drawn) [Z10] | 25.4 | 70.2 |  | 310
18 | COC1CCC2(C1)Nc1c(cnc3[nH]cc(C(=O)c4ccc(Oc5ccccc5)cc4Cl)c13)NC2=O (single isomer, unassigned) [Z25-3b, 9′-(2-chloro-4-phenoxybenzoyl)-3-methoxy-4′,7′-dihydrospiro[cyclopentane-1,2′-pyrrolo[3′,2′:5,6]pyrido[3,4-b]pyrazin]-3′(1′H)-one] | 10 | 15.1 |  | 140
19 | [2H]C([2H])([2H])OC[C@]1(C)Nc2c(cnc3[nH]cc(C(=O)c4ccc(Oc5ncccc5F)cc4Cl)c23)NC1=O [Z145, (S)-9-(2-chloro-4-((3-fluoropyridin-2-yl)oxy)benzoyl)-2-((methoxy-d3)methyl)-2-methyl-1,2,4,7-tetrahydro-3H-pyrrolo[3′,2′:5,6]pyrido[3,4-b]pyrazin-3-one] | 13.1 | 9.3 | 166 | 

Further lines, with some results ahead:

Row | IC50 (BTK (C481S)) [nM] | IC50 (BTK) [nM] | Compound | IC50 (TMD-8 cells; Homo sapiens, TMD8, 72 h) [nM] | IC50 (TMD-8 cells) [nM]
20 | 22.1 | 37.1 | C[C@@]1(COC(F)F)Nc2c(cnc3[nH]cc(C(=O)c4ccc(Oc5ccccc5)cc4Cl)c23)NC1=O [Z139, (S)-9-(2-chloro-4-phenoxybenzoyl)-2-((difluoromethoxy)methyl)-2-methyl-1,2,4,7-tetrahydro-3H-pyrrolo[3′,2′:5,6]pyrido[3,4-b]pyrazin-3-one] | 106 | 
21 | 21.3 | 54.4 | CN1CC2(C1)Nc1c(cnc3[nH]cc(C(=O)c4ccc(Oc5ccccc5)cc4Cl)c13)NC2=O [Z11, 9′-(2-chloro-4-phenoxybenzoyl)-1-methyl-4′,7′-dihydrospiro[azetidine-3,2′-pyrrolo[3′,2′:5,6]pyrido[3,4-b]pyrazin]-3′(1′H)-one] | 372 | 
22 | 8.6 | 12.7 | [2H]C([2H])([2H])OC[C@@]1(C)Nc2c(cnc3[nH]cc(C(=O)c4ccc(Oc5ccccc5)cc4Cl)c23)NC1=O (single isomer, unassigned) [Z66-2] | 299 | 
23 | 10.8 | 15.2 | COC[C@]1(C)Nc2c(cnc3[nH]cc(C(=O)c4ccc(Oc5cccc(F)c5)cc4Cl)c23)NC1=O [Z157, (S)-9-(2-chloro-4-(3-fluorophenoxy)benzoyl)-2-(methoxymethyl)-2-methyl-1,2,4,7-tetrahydro-3H-pyrrolo[3′,2′:5,6]pyrido[3,4-b]pyrazin-3-one] | 145 | 
24 | 21.3 | 20.2 | COCC1(C)Nc2c(cnc3[nH]cc(C(=O)c4ccc(Oc5ccccc5)cc4F)c23)NC1=O (stereo not drawn) [Z71] |  | 171
25 | 28.8 | 27.6 | COCC[C@@]1(C)Nc2c(cnc3[nH]cc(C(=O)c4ccc(Oc5ccccc5)cc4Cl)c23)NC1=O [Z78-1] |  | 289
26 | 30.1 | 22.4 | COC[C@]1(C)Nc2c(cnc3[nH]cc(C(=O)c4ccc(Oc5ccccc5Cl)cc4Cl)c23)NC1=O [Z164, (S)-9-(2-chloro-4-(2-chlorophenoxy)benzoyl)-2-(methoxymethyl)-2-methyl-1,2,4,7-tetrahydro-3H-pyrrolo[3′,2′:5,6]pyrido[3,4-b]pyrazin-3-one] | 145 | 
27 | 20 | 20 | C[C@]1(CO)Nc2c(cnc3[nH]cc(C(=O)c4ccc(Oc5ccccc5)cc4Cl)c23)NC1=O (single isomer, unassigned) [Z9-1] |  | 389
